Nine molecules from patent publication US20070244169A1, “GLUCOKINASE ACTIVATORS” (priority 2005, published 2007) can be followed below.

This assay has as its target T1, GST-hLGK1 (GK) (Homo sapiens, UniProt P35557).
T1 construct: GST (N); made in house
T1 sequence (P35557 1-464 isoform P35557-3): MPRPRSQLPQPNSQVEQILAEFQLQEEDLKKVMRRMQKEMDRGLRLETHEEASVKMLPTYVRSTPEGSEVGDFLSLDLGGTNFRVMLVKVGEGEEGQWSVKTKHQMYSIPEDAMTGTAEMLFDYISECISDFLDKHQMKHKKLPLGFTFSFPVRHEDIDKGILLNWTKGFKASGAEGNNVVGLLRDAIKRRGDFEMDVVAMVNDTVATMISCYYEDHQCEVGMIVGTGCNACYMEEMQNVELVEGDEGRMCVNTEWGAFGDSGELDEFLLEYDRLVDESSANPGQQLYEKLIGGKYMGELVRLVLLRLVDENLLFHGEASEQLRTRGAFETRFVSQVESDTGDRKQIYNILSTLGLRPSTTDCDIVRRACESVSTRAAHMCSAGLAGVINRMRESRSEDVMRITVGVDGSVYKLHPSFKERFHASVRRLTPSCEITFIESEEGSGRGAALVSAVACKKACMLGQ
Kind of assay: GK activation assay with GST-hLGK1 and Mant-ATP, capillary electrophoresis readout. Type of assay: biochemical. Conditions: GST-hLGK1 6 μg/mL, 50 μM Mant-ATP, 25 mM D-glucose solution (10 μL) added, 37° C. for 60 min; concentration for 50% of the maximum activity value; read-out: EC50 of Exemplified Compounds against GK. The procedure:
A 50% solution (5 μL) of the test compound in dimethyl sulfoxide was added to each well of a 384 well black plate (Nalge Nunc). Then, 35 μL of a liquid obtained by diluting GST-hLGK1 obtained in Reference Example 2A with a measurement buffer (50 mM HEPES (pH 7.4), containing 200 mM KCl, 5 mM MgCl2, 2.5 mM DTT and 50 μM 2′-(or-3′)—O—(N-methylanthraniloyl)adenosine 5′-triphosphate (Mant-ATP) (Jena Bioscience)) was added to each well to 6 μg/mL. Each well was maintained at 37° C. for 10 min, and a 25 mM D-glucose solution (10 μL) was added to start the reaction. After the start of the reaction, each well was allowed to stand at 37° C. for 60 min, before quenching the reaction by adding 25 μL of a reaction quenching solution (200 mM HEPES (pH 7.4), containing 20 mM MgCl2, 200 mM EDTA, 0.03% Triton-X 100, 0.3% Coating 3 reagent (Caliper Life Sciences)).
Mant-ATP (substrate) and Mant-ADP (reaction resultant product) were separated from each well after quenching the reaction, with a microchip type capillary electrophoresis apparatus 250HTS (Caliper Life Sciences). The reaction rate [(peak height of reaction resultant product)/(peak height of reaction resultant product+peak height of substrate)×100(%)] was calculated from the ratio of the substrate peak height and the reaction resultant product peak height, which were obtained by fluorescence detection (excitation wavelength 355 nm, measurement wavelength 460 nm), and used as an index of the GK activity.
For the control, the reaction rate was calculated in the same manner as above, except that a “50% dimethyl sulfoxide solution” was used instead of the “50% solution of the test compound in dimethyl sulfoxide”.
A percentage obtained by dividing the reaction rate of the well with the test compound (test compound addition group) by the reaction rate of the well with a 50% dimethyl sulfoxide solution alone (control group) was taken as the GK activation value by the test compound, and the concentration of the test compound necessary for the activation of 50% of the maximum activity value determined as an EC50 value.

A word on the EC50: it is the concentration that produces a half-maximal response. As to `Brc1ccc2[nH]nc(Nc3nccs3)c2c1` [Compound 7, 5-Bromo-N-1,3-thiazol-2-yl-1H-indazol-3-amine], the EC50 came out at 5000 nM.

Take `Cn1nc(Nc2nccs2)c2cc(C(F)(F)F)ccc21` [Compound 9, 1-Methyl-N-1,3-thiazol-2-yl-5-(trifluoromethyl)-1H-indazol-3-amine]: the EC50 amounted to 2500 nM.

For the molecule `O=[N+]([O-])c1ccc2[nH]nc(Nc3nccs3)c2c1` [Compound 20, 5-Nitro-N-1,3-thiazol-2-yl-1H-indazol-3-amine], the EC50 is 6600 nM.

For `CC(=O)Nc1ccc2[nH]nc(Nc3nccs3)c2c1` [Compound 22, N-[3-(1,3-Thiazol-2-ylamino)-1H-indazol-5-yl]acetamide], the EC50 was determined as 15000 nM.

With `CC(=O)c1ccc2[nH]nc(Nc3nccs3)c2c1` [Compound 25, 1-[3-(1,3-Thiazol-2-ylamino)-1H-indazol-5-yl]ethanone], the 50% effective concentration (EC50) amounted to 8600 nM.

With `CC(C)Cc1ccc2[nH]nc(Nc3nccs3)c2c1` [Compound 29, 5-Isobutyl-N-1,3-thiazol-2-yl-1H-indazol-3-amine], the EC50 turned out to be 1200 nM.

On to `CC(C)c1ccc2[nH]nc(Nc3nccs3)c2c1` [Compound 33, 5-Isopropyl-N-1,3-thiazol-2-yl-1H-indazol-3-amine], for which the 50% effective concentration (EC50) was 2900 nM.

Consider `CC(C)Oc1ccc2[nH]nc(Nc3nccs3)c2c1` [Compound 34, 5-Isopropoxy-N-1,3-thiazol-2-yl-1H-indazol-3-amine], for which the concentration for a half-maximal effect (EC50) turned out to be 1700 nM.

Take `COCC(C)Oc1ccc2[nH]nc(Nc3nccs3)c2c1` (stereo not drawn) [Compound 35, 5-(2-Methoxy-1-methylethoxy)-N-1,3-thiazol-2-yl-1H-indazol-3-amine]: the concentration giving a half-maximal response (EC50) came out at 2400 nM.
